Assay results as given in the NIST ThermoML archive (doi:10.1021/acs.jced.6b00455).

Experiment: mn = molality of the nth substance listed, in mol/kg
Details: 101 kPa, Liquid, Alternating current cell with electrodes

C[N+](C)(C)CCO.O=C([O-])C(F)(F)C(F)(F)C(F)(F)C(F)(F)C(F)(F)F [(2-hydroxyethyl)trimethylammonium perfluorohexanoate] + O
Details | electrical conductivity [S/m]
293.15 K, m1 = 0.000375 | 0.0022
293.15 K, m1 = 0.000696 | 0.0041
293.15 K, m1 = 0.001138 | 0.0071
293.15 K, m1 = 0.001477 | 0.0092
293.15 K, m1 = 0.001847 | 0.0114
293.15 K, m1 = 0.002373 | 0.0146
293.15 K, m1 = 0.00271 | 0.0166
293.15 K, m1 = 0.003146 | 0.0191
293.15 K, m1 = 0.003565 | 0.0215
293.15 K, m1 = 0.003898 | 0.0234
293.15 K, m1 = 0.004204 | 0.0251
293.15 K, m1 = 0.004601 | 0.0273
293.15 K, m1 = 0.00507 | 0.03
293.15 K, m1 = 0.00539 | 0.0318
293.15 K, m1 = 0.005815 | 0.034
293.15 K, m1 = 0.006239 | 0.0364
293.15 K, m1 = 0.00662 | 0.0384
293.15 K, m1 = 0.007072 | 0.0408
293.15 K, m1 = 0.007377 | 0.0425
293.15 K, m1 = 0.007726 | 0.0443
293.15 K, m1 = 0.008233 | 0.047
293.15 K, m1 = 0.008702 | 0.0493
293.15 K, m1 = 0.009174 | 0.0517
293.15 K, m1 = 0.009518 | 0.0535
293.15 K, m1 = 0.009916 | 0.0557
293.15 K, m1 = 0.01043 | 0.0585
293.15 K, m1 = 0.01075 | 0.0607
293.15 K, m1 = 0.01135 | 0.0637
293.15 K, m1 = 0.01181 | 0.0666
293.15 K, m1 = 0.01223 | 0.0687
298.15 K, m1 = 0.00055 | 0.0043
298.15 K, m1 = 0.001005 | 0.0076
298.15 K, m1 = 0.001703 | 0.0126
298.15 K, m1 = 0.002219 | 0.0163
298.15 K, m1 = 0.002829 | 0.0204
298.15 K, m1 = 0.003309 | 0.0241
298.15 K, m1 = 0.003767 | 0.0269
298.15 K, m1 = 0.00423 | 0.0305
298.15 K, m1 = 0.004871 | 0.0338
298.15 K, m1 = 0.005471 | 0.0376
298.15 K, m1 = 0.005971 | 0.0408
298.15 K, m1 = 0.006435 | 0.0436
298.15 K, m1 = 0.007097 | 0.0477
298.15 K, m1 = 0.007791 | 0.0519
298.15 K, m1 = 0.008432 | 0.0557
298.15 K, m1 = 0.008992 | 0.0589
298.15 K, m1 = 0.009929 | 0.0652
298.15 K, m1 = 0.01068 | 0.0683
298.15 K, m1 = 0.0118 | 0.0747
298.15 K, m1 = 0.01243 | 0.0781
298.15 K, m1 = 0.01316 | 0.0821
298.15 K, m1 = 0.01446 | 0.0892
303.15 K, m1 = 0.000466 | 0.0041
303.15 K, m1 = 0.000808 | 0.0072
303.15 K, m1 = 0.001191 | 0.0104
303.15 K, m1 = 0.001576 | 0.0137
303.15 K, m1 = 0.002245 | 0.0181
303.15 K, m1 = 0.002642 | 0.0212
303.15 K, m1 = 0.00302 | 0.0242
303.15 K, m1 = 0.003455 | 0.0274
303.15 K, m1 = 0.003946 | 0.0311
303.15 K, m1 = 0.004412 | 0.0342
303.15 K, m1 = 0.004852 | 0.0375
303.15 K, m1 = 0.00528 | 0.0407
303.15 K, m1 = 0.005774 | 0.0442
303.15 K, m1 = 0.006137 | 0.0465
303.15 K, m1 = 0.006412 | 0.0486
303.15 K, m1 = 0.006786 | 0.0514
303.15 K, m1 = 0.00737 | 0.0557
303.15 K, m1 = 0.007781 | 0.0587
303.15 K, m1 = 0.008049 | 0.0605
303.15 K, m1 = 0.008511 | 0.0638
303.15 K, m1 = 0.008888 | 0.0663
303.15 K, m1 = 0.009262 | 0.0691
303.15 K, m1 = 0.009766 | 0.0727
303.15 K, m1 = 0.01022 | 0.0763
308.15 K, m1 = 0.00032 | 0.0028
308.15 K, m1 = 0.000664 | 0.006
308.15 K, m1 = 0.000979 | 0.0086
308.15 K, m1 = 0.001217 | 0.0105
308.15 K, m1 = 0.001449 | 0.0125
308.15 K, m1 = 0.001666 | 0.0142
308.15 K, m1 = 0.002016 | 0.017
308.15 K, m1 = 0.00224 | 0.0188
308.15 K, m1 = 0.002547 | 0.0213
308.15 K, m1 = 0.002821 | 0.0235
308.15 K, m1 = 0.003227 | 0.0266
308.15 K, m1 = 0.003473 | 0.0285
308.15 K, m1 = 0.003909 | 0.0318
308.15 K, m1 = 0.004306 | 0.0348
308.15 K, m1 = 0.004503 | 0.0365
308.15 K, m1 = 0.004751 | 0.0383
308.15 K, m1 = 0.005079 | 0.0408
308.15 K, m1 = 0.005473 | 0.0437
308.15 K, m1 = 0.005677 | 0.0452
308.15 K, m1 = 0.005898 | 0.0468
308.15 K, m1 = 0.006135 | 0.0484
308.15 K, m1 = 0.006462 | 0.0505
308.15 K, m1 = 0.006775 | 0.0522
308.15 K, m1 = 0.006992 | 0.0537
308.15 K, m1 = 0.007243 | 0.0556
308.15 K, m1 = 0.00746 | 0.0572
308.15 K, m1 = 0.007893 | 0.0603
308.15 K, m1 = 0.008273 | 0.063
308.15 K, m1 = 0.008535 | 0.0647
308.15 K, m1 = 0.008941 | 0.0676
308.15 K, m1 = 0.009261 | 0.0697
308.15 K, m1 = 0.009516 | 0.0711
308.15 K, m1 = 0.009886 | 0.0734
308.15 K, m1 = 0.01025 | 0.076
313.15 K, m1 = 0.00043 | 0.0042
313.15 K, m1 = 0.000832 | 0.008
313.15 K, m1 = 0.001262 | 0.012
313.15 K, m1 = 0.001627 | 0.0157
313.15 K, m1 = 0.002033 | 0.0192
313.15 K, m1 = 0.00239 | 0.0224
313.15 K, m1 = 0.002657 | 0.0247
313.15 K, m1 = 0.002904 | 0.0268
313.15 K, m1 = 0.003178 | 0.0292
313.15 K, m1 = 0.003443 | 0.0314
313.15 K, m1 = 0.003771 | 0.0349
313.15 K, m1 = 0.004146 | 0.038
313.15 K, m1 = 0.004519 | 0.0412
313.15 K, m1 = 0.004784 | 0.0433
313.15 K, m1 = 0.005179 | 0.0467
313.15 K, m1 = 0.005436 | 0.0487
313.15 K, m1 = 0.005698 | 0.051
313.15 K, m1 = 0.006109 | 0.0544
313.15 K, m1 = 0.006403 | 0.0567
313.15 K, m1 = 0.006614 | 0.0584
313.15 K, m1 = 0.006889 | 0.0606
313.15 K, m1 = 0.007247 | 0.0637
313.15 K, m1 = 0.007657 | 0.0669
313.15 K, m1 = 0.008021 | 0.0699
313.15 K, m1 = 0.008353 | 0.0725
313.15 K, m1 = 0.0086 | 0.0744
313.15 K, m1 = 0.008852 | 0.0763
313.15 K, m1 = 0.009114 | 0.0783
313.15 K, m1 = 0.009356 | 0.0803
313.15 K, m1 = 0.009621 | 0.0823
313.15 K, m1 = 0.009883 | 0.0842
313.15 K, m1 = 0.01024 | 0.0869
313.15 K, m1 = 0.01049 | 0.0888
